The text below walks through data of patent US20230089267A1, “Compositions and Methods For Reducing Immune Intolerance and Treating Autoimmune Disorders” (Lapix Therapeutics, Inc., priority 2021, published 2023).

Assay [1] concerns passive MG model. Kind of assay: Passive myasthenia gravis model, adoptive transfer to RAG2−/− mice. It counts as in vivo. Particulars: by day 10, SC daily for ten days. As to the method: In this passive MG model in B6 mice, donor mice (n=20, aged 6-8 weeks) were immunized with complete Freund's adjuvant (CFA) and nicotinic acetylcholine receptor (AChR) emulsion weekly for four weeks. Seven days after the last immunization, splenocytes were collected, and 10^6 cells/mouse were transferred to RAG2^−/− mice. The recipient mice (n=10/group) were treated one day after adoptive transfer with prednisone (1 μg/mouse) SC daily for ten days after disease onset or Compound 2 3 μg SC daily for ten days after disease onset, or were left untreated. Minimal manifestation of disease was defined as a return to a clinical score of 1 after an exacerbation (score 2 or higher). Time to return to minimal score was logged, and the likelihood of return was plotted for untreated animals, and standard of care (SOC; prednisone)- and Compound 2-treated animals.

The test system of assay [2] is MOG35-55-induced murine EAE model. Nature of the assay: MOG35-55-induced murine EAE model, Compound 2 versus Compound 8 (Example 12). The format is in vivo, mice. Particulars: 3 μg/mouse/day SC, after ten days of treatment. As to the method:
Mice were immunized with 100 μg MOG35-55 emulsified with CFA and pertussis toxin, as described in Example 4. At disease onset (clinical score 1), mice were randomized into two treatment groups, and received 3 μg/mouse/day SC of either Compound 2 or Compound 8.

Assay [3] deals with FoxP3+/CD4+ T-cells in splenocytes from naïve C57BL/6 mice. Kind of assay: In vitro dose-response, percent FoxP3+/CD4+ T-cells in murine splenocytes. Particulars: for EC50 / EC90: Mus musculus, T-cell, percent FoxP3+/CD4+ T-cells, 72 hours, 4-parameter log-logistic model fit; for mean FoxP3+/CD4+ T-cells, upper plateau, mean (SEM): high dose; for mean FoxP3+/CD4+ T-cells, upper plateau, mean (SEM) / mean FoxP3+/CD4+ T-cells, lower plateau, mean (SEM): from model fitting; for mean FoxP3+/CD4+ T-cells, lower plateau, mean (SEM): low dose. It counts as cell-based. As to the method: All animal studies were conducted under IACUC number B2020-91 and in compliance with Tufts University/Tufts Medical Center & Human Nutrition Research Center on Aging. Animals were housed four in a cage and had access to food and water ad libitum. Anti-FoxP3 and anti-CD4 for flow cytometry were obtained from eBioscience. Compounds 1-3 were formulated with 10% DMPC in PBS. PS liposomes were synthesized at a 30:70 PS:lipid molar ratio.
Splenocytes from naïve C57BL/6 mice were stained with CFSE, seeded at 2×10^5 cells/well, and dosed with each compound from 1e^−4 μM to 3.0e^−9 μM using a log 2 dilution scheme. Cells were incubated for 72 hours before phenotyping for FoxP3+/CD4+ T-cells. Flow cytometer analysis was performed to assess changes in percent FoxP3+/CD4+ T-cells as a function of compound and dose. Concentration versus response was fitted to a 4-parameter, log-logistic model using the “dre” package in “R”. Both EC50 and EC90 were obtained by model fitting.
Cells were observed via a microscope at the end of the incubation period. All cells looked healthy and suitable for flow cytometry analysis.
Table 2 summarizes EC50 and EC90 values obtained from the model fitting.

Assay [4] relates to MOG35-55-induced murine EAE model. Nature of the assay: Escalation treatment paradigm in MOG35-55-induced murine EAE model (Example 8). It counts as in vivo, mice. The procedure:
Compound 2 (0.03 mg/ml) was formulated with hydroxypropyl beta cyclodextrin (HPCD) 1:80 (Compound 2:HPCD) and stored at 4° C. until use. Natalizumab, an anti-α4β1 integrin antibody is a monoclonal antibody that is approved by U.S. Food and Drug Administration (FDA) for the treatment of relapsing forms of MS. […] Natalizumab was diluted in PBS to a final concentration of 15 mg/ml before dosing. DMF is a disease-modifying therapy (DMT) recommended for the treatment of active relapsing multiple sclerosis. DMF (1 g) was dissolved in 50 ml of 4% solution of METHOCEL© to give a 20 mg/ml solution of DMF. The solution was stored at 4° C. until use.
Experimental autoimmune (allergic) encephalomyelitis (EAE) is considered to be the best non-clinical model of multiple sclerosis (MS). Over 6,000 papers have been published in scientific journals on this model. EAE is characterized by immune responses against CNS tissue and can be induced in animals by immunizing them against proteins of the CNS. In the active EAE model, mice are immunized with MOG35-55 peptide emulsified in Complete Freund's Adjuvant (CFA) by subcutaneous injection at the tail base (100 μg of […] per mouse) under anesthesia. On the day of injection (Day 0) and two days later (Day 2), mice receive an intraperitoneal injection of pertussis toxin (PT) in PBS at 200 ng/mouse/dose (0.1 mL). Symptoms typically develop in mice 9-14 days after immunization (Day 0). Daily observation and scoring of mice start on Day 7 and continue until the end of the study. Table 5 (see Example 4 above) details the expected clinical symptoms and the scoring criteria used in this study.
This study was designed to evaluate the early sustained use of Compound 2 versus DMF in a treatment escalation paradigm (sustained use cohort), and Compound 2 versus natalizumab after DMF failure (escalation cohort). All animals in the escalation cohorts received 14 doses of DMF or Compound 2, or 3 doses of natalizumab, as per group assignment.
Probability of disease control: Disease control was defined as a clinical score of less than 2.5. Animals in the different treatment groups were monitored after the 3:1:1 randomization. A score of 2.5 was recorded as an event and analyzed by survival analysis in GraphPad Prism 9. Animals not reaching a clinical score of 2.5 by day 14, the end of the treatment period, were assigned a score of zero for the survival analysis.
Efficacy of Compound 2 versus DMF in early sustained use: Animals in the DMF group that reached a score of 2.5 were randomized 1:1:1, as per FIG. 5A. Animals randomized to continue DMF treatment were given the remainder of the 14 DMF doses. Animals from the first randomization that were treated with Compound 2 after disease onset continued treatment for a total of 14 doses. After the 14th dose, treatment was stopped and clinical score and overall survival were monitored.
Efficacy of Compound 2 versus natalizumab in a treatment escalation cohort: Animals in the DMF group that reached a score of 2.5 were randomized 1:1:1, as per FIG. 5A. Animals randomized to natalizumab were dosed 100 μg/mouse IV every 3 days for 3 total doses starting the same day a score of 2.5 was recorded. Animals randomized to Compound 2 were dosed with 3 μg/mouse SC QD for 14 total doses starting on the same day a score of 2.5 was recorded.
Overall survival: Death due to the disease was monitored in the early sustained use cohort as well as the escalation cohort. Death by disease (clinical score of 5) was recorded as an event “1,” death due to ulceration or for ex vivo analysis was recorded as “0.” Animals surviving until the end of the study were recorded “0” on day 27. Survival analysis was done in GraphPad Prism 9.

The test system is the same in assay [5]. Nature of the assay: Induction/maintenance treatment paradigm in MOG35-55-induced murine EAE model (Example 9). The format is in vivo, mice. As to the method: Compound 2, natalizumab and DMF were prepared as described in Example 8. Table 5 (see Example 4) details the expected clinical symptoms and scoring criteria used in this study.
This study was designed to evaluate the therapeutic effects of Compound 2 versus natalizumab in a treatment induction/maintenance paradigm (induction cohort), and Compound 2 versus DMF after natalizumab (maintenance cohort). In the induction cohorts, animals were randomized 2:1:1 natalizumab:Compound 2:control when they reached a score of 2.5, as per FIG. 6A. Animals in the natalizumab cohort were given 100 μg natalizumab/mouse every 3 days for 3 doses before being randomized to the maintenance cohort. Animals randomized into the maintenance cohort after natalizumab received maintenance doses of DMF or Compound 2 (1:1 randomization), as per their group assignment for 14 days. Animals in the Compound 2 induction cohort were dosed with 30 μg Compound 2/mouse SC QD for a maximum of 7 days, or 3 consecutive days of disease score <2.5, at which time they were placed on a maintenance dose of 3 μg/mouse SC QD for 14 days. All animals in all groups were monitored for 14 days after the last dose for disease score and survival.
Disease control (induction therapy): Disease control was defined as maintaining a clinical score of 2.5 or less after randomization. Animals in the different treatment groups were monitored after the 2:1:1 randomization. Clinical scores were recorded daily for all animals and plotted over time. A score of >2.5 was recorded as an event and analyzed by survival analysis in GraphPad Prism 9. Animals not reaching a clinical score of 2.5 by the end of the induction period (day 7) were assigned a score of zero for the survival analysis.
Survival (induction therapy): Death due to disease (clinical score 5) during the treatment induction period was recorded as an event “1”, animals surviving until the end of the induction period, day 7 after randomization, were censored on day 7 for the purposes of survival analysis.
Disease control (maintenance therapy): At the end of the induction period with natalizumab, animals were randomized 1:1 to the DMF maintenance group or Compound 2 maintenance group as per FIG. 6A. Animals were dosed for 14 days, and clinical scores were monitored daily.
Survival (maintenance therapy): Death by disease (clinical score of 5) was recorded as an event “1”, death due to ulceration or ex vivo analysis was recorded as “0”. Animals surviving until the end of the study were recorded as “0” on the last day of the study. Survival analysis was done in GraphPad Prism 9.

Where [6] appears, read: escalation cohort after DMF failure (score 2.5), by day 14 after switching.
Setting [7] is: maintenance after natalizumab induction.

Where a name gives a salt, the structure may show the parent alone.

For `C[C@]12C=CC(=O)C=C1CC[C@@H]1[C@@H]2C(=O)C[C@@]2(C)[C@H]1CC[C@]2(O)C(=O)CO` [prednisone, reference compound], in assay [1], the “animals returned to minimal manifestation of disease (score 1)” value is on record as 46%.
Regarding `N[C@@H](CNC(=O)Cc1ccc(OCc2cccc3ccccc23)cn1)C(=O)O` [Compound 8, (S)-2-Amino-3-(2-(5-(naphthalen-1-ylmethoxy)pyridin-2-yl)acetamido)propanoic acid], the “mean clinical score, comparison of the two groups” value in assay [2] is reported as “no statistical difference”.
As a reminder, the EC50 is the concentration giving half of the maximal effect. High values mean a need for much substance, low ones an effect from little substance. One may read the EC90 as the point of the concentration-response curve where the effect stands at 90%. `N[C@@H](CNC(=O)Cc1ccc(OCc2ccccc2)cc1)C(=O)O` [Compound 1, (S)-2-amino-3-(2-(4-(benzyloxy)phenyl)acetamido)propanoic acid]: in assay [3], it took 2.06 nM to reach a half-maximal effect (EC50); the EC90 is 688 nM; the “mean FoxP3+/CD4+ T-cells, upper plateau, mean (SEM)” value is 5.18%; the “mean FoxP3+/CD4+ T-cells, lower plateau, mean (SEM)” value is 1.47%.
For “natalizumab: anti-α4β1 integrin monoclonal antibody approved by FDA for the treatment of relapsing forms of MS [reference compound]”, in assay [4] (setting [6]), the “mean clinical score after switching from DMF” value is 3.6 (SD=1.6) and the “median clinical score after switching from DMF” value was determined as 3.75. The “animals that survived until day 27, escalation cohort” value in assay [4] (switched from DMF) is 6 out of 9. For the same compound, in assay [5] (induction period), the “mice showing clinical score improvement and switched to maintenance before end of induction period” value was 0/18. The “animals that survived the treatment induction period” value in assay [5] (induction period, day 7 after randomization) was 11/18. Also, the “mice that died before completing the induction therapy” value in assay [5] (induction therapy) worked out at 38.8%. Further, in assay [5] (randomized at score 2.5, Compound 2 30 μg SC), the “mean clinical score by day 7 of induction” value is reported as 3.61 (SD=1.17). Also, in assay [5] (randomized at score 2.5, natalizumab 100 μg/mouse every 3 days, Compound 2 30 μg SC), the “animals that progressed to a clinical score >2.5 during induction” value is given as 12.
Take `COC(=O)/C=C/C(=O)OC` [DMF, dimethyl fumarate, reference compound]: the “disease course in early sustained use cohort” value in assay [4] (14 doses, followed to end of study) is “progressed at the same rate as untreated control animals, with all animals reaching a clinical score of 5 by end of the study”. In addition, the “overall survival, early sustained use cohort” value in assay [4] (to day 27) is given as “all animals in the DMF-treated group died by day 26”. Further, in assay [4] (treatment from disease onset (score 1), within 7 days of disease onset), the “animals that progressed to a score of 2.5” value is given as “All animals (n=30)”. Besides, the “mean clinical score of animals randomized to maintenance therapy after natalizumab induction” value in assay [5] (at start of maintenance) is 2.5 (SD=0.4). For the same compound, in assay [5] (setting [7]), the “animals that progressed to clinical score 5 (death by disease)” value is given as 3 out of 4 and the “last measured score, day 7 after initiation of maintenance” value is given as 4.37 (SD=1.2). Also, the “mortality rate in maintenance cohort” value in assay [5] (maintenance after natalizumab induction, n=4 in each group) is given as 75%.
With `CCCCCC(=O)O[C@@H](COC(C)=O)CO[PH](=O)OC[C@H](N)C(=O)O` (stereo partly shown) [PS, phosphatidylserine, reference compound], in assay [3], the EC50 was found to be 0.133 nM and the EC90 stood at 0.314 nM.
With `N[C@@H](CNC(=O)Cc1ccc(OC(c2ccccc2)c2ccccc2)cc1)C(=O)O` [Compound 3, (S)-2-amino-3-(2-(4-(benzhydryloxy)phenyl)acetamido)propanoic acid], in assay [3] (EC50 and EC90, respectively), the “potency relative to PS, as measured by EC50 and EC90” value was “two and one orders of magnitude higher (more potent) than PS”. In addition, in assay [3], the EC50 came to 3.76 nM; it took 20.4 nM to reach the 90% level (EC90); the “mean FoxP3+/CD4+ T-cells, upper plateau, mean (SEM)” value came out at 3.48%; the “mean FoxP3+/CD4+ T-cells, lower plateau, mean (SEM)” value is 1.32%.
